Data: ChEMBL document CHEMBL2440076, “New triarylpyrazoles as broad-spectrum anticancer agents: design, synthesis, and biological evaluation” (Eur J Med Chem, 2013)

Legend:
Type in all cases: functional
U-251 = experiment: Growth inhibition of human U251 cells assessed as cell growth at 10^-7 M after 48 hrs by sulforhodamine B assay; settings: U-251, 48 h, read-out: Activity
HCT-116 [1] = experiment: Growth inhibition of human HCT116 cells assessed as cell growth at 10^-7 M after 48 hrs by sulforhodamine B assay; settings: HCT-116, 48 h, read-out: Activity
COLO 205 [2] = experiment: Growth inhibition of human COLO205 cells assessed as cell growth at 10^-7 M after 48 hrs by sulforhodamine B assay; settings: COLO 205, 48 h, read-out: Activity
NCI-H226 [3] = experiment: Growth inhibition of human NCI-H226 cells assessed as cell growth at 10^-7 M after 48 hrs by sulforhodamine B assay; settings: NCI-H226, 48 h, read-out: Activity
A549 = experiment: Growth inhibition of human A549/ATCC cells assessed as cell growth at 10^-7 M after 48 hrs by sulforhodamine B assay; settings: A549, 48 h, read-out: Activity
SK-OV-3 = experiment: Growth inhibition of human SKOV3 cells assessed as cell growth at 10^-4 M after 48 hrs by sulforhodamine B assay; settings: SK-OV-3, 48 h, read-out: Activity
OVCAR-5 = experiment: Growth inhibition of human OVCAR5 cells assessed as cell growth at 10^-4 M after 48 hrs by sulforhodamine B assay; settings: OVCAR-5, 48 h, read-out: Activity
UACC-257 [4] = experiment: Growth inhibition of human UACC257 cells assessed as cell growth at 10^-4 M after 48 hrs by sulforhodamine B assay; settings: UACC-257, 48 h, read-out: Activity
Malme-3M = experiment: Growth inhibition of human MALME-3M cells assessed as cell growth at 10^-4 M after 48 hrs by sulforhodamine B assay; settings: read-out: Activity
SF-539 = experiment: Growth inhibition of human SF539 cells assessed as cell growth at 10^-4 M after 48 hrs by sulforhodamine B assay; settings: SF-539, 48 h, read-out: Activity
SW-620 [5] = experiment: Growth inhibition of human SW620 cells assessed as cell growth at 10^-4 M after 48 hrs by sulforhodamine B assay; settings: SW-620, 48 h, read-out: Activity
HCT-15 [6] = experiment: Growth inhibition of human HCT15 cells assessed as cell growth at 10^-4 M after 48 hrs by sulforhodamine B assay; settings: HCT-15, 48 h, read-out: Activity
DU-145 = experiment: Growth inhibition of human DU145 cells assessed as cell growth at 10^-8 M after 48 hrs by sulforhodamine B assay; settings: DU-145, 48 h, read-out: Activity
RXF 393 = experiment: Growth inhibition of human RXF393 cells assessed as cell growth at 10^-8 M after 48 hrs by sulforhodamine B assay; settings: RXF 393, 48 h, read-out: Activity
CAKI-1 [7] = experiment: Growth inhibition of human CAKI-1 cells assessed as cell growth at 10^-8 M after 48 hrs by sulforhodamine B assay; settings: CAKI-1, 48 h, read-out: Activity
UACC-257 [8] = experiment: Growth inhibition of human UACC257 cells assessed as cell growth at 10^-8 M after 48 hrs by sulforhodamine B assay; settings: UACC-257, 48 h, read-out: Activity
LOX IMVI = experiment: Growth inhibition of human LOXIMVI cells assessed as cell growth at 10^-8 M after 48 hrs by sulforhodamine B assay; settings: read-out: Activity
HCT-15 [9] = experiment: Growth inhibition of human HCT15 cells assessed as cell growth at 10^-8 M after 48 hrs by sulforhodamine B assay; settings: HCT-15, 48 h, read-out: Activity
HCT-116 [10] = experiment: Growth inhibition of human HCT116 cells assessed as cell growth at 10^-8 M after 48 hrs by sulforhodamine B assay; settings: HCT-116, 48 h, read-out: Activity
[11] = Growth inhibition of human HCC2998 cells assessed as cell growth at 10^-8 M after 48 hrs by sulforhodamine B assay; settings: HCC 2998, 48 h, read-out: Activity
COLO 205 [12] = experiment: Growth inhibition of human COLO205 cells assessed as cell growth at 10^-8 M after 48 hrs by sulforhodamine B assay; settings: COLO 205, 48 h, read-out: Activity
K562 = experiment: Growth inhibition of human K562 cells assessed as cell growth at 10^-8 M after 48 hrs by sulforhodamine B assay; settings: K562, 48 h, read-out: Activity
NCI-H226 [13] = experiment: Growth inhibition of human NCI-H226 cells assessed as cell growth at 10^-4 M after 48 hrs by sulforhodamine B assay; settings: NCI-H226, 48 h, read-out: Activity
BT-549 = experiment: Growth inhibition of human BT549 cells assessed as cell growth at 10^-5 M after 48 hrs by sulforhodamine B assay; settings: BT-549, 48 h, read-out: Activity
MCF7 [14] = experiment: Growth inhibition of human MCF7 cells assessed as cell growth at 10^-5 M after 48 hrs by sulforhodamine B assay; settings: MCF7, 48 h, read-out: Activity
CAKI-1 [15] = experiment: Growth inhibition of human CAKI-1 cells assessed as cell growth at 10^-5 M after 48 hrs by sulforhodamine B assay; settings: CAKI-1, 48 h, read-out: Activity
NCI-H23 = experiment: Growth inhibition of human NCI-H23 cells assessed as cell growth at 10^-5 M after 48 hrs by sulforhodamine B assay; settings: NCI-H23, 48 h, read-out: Activity
MDA-MB-231 = experiment: Growth inhibition of human MDA-MB-231 cells assessed as cell growth at 10^-6 M after 48 hrs by sulforhodamine B assay; settings: MDA-MB-231, 48 h, read-out: Activity
[16] = Growth inhibition of human Hs 578T cells assessed as cell growth at 10^-6 M after 48 hrs by sulforhodamine B assay; settings: read-out: Activity
MCF7 [17] = experiment: Growth inhibition of human MCF7 cells assessed as cell growth at 10^-6 M after 48 hrs by sulforhodamine B assay; settings: MCF7, 48 h, read-out: Activity
SN12C = experiment: Growth inhibition of human SN12C cells assessed as cell growth at 10^-6 M after 48 hrs by sulforhodamine B assay; settings: read-out: Activity
SW-620 [18] = experiment: Growth inhibition of human SW620 cells assessed as cell growth at 10^-6 M after 48 hrs by sulforhodamine B assay; settings: SW-620, 48 h, read-out: Activity
NCI-H460 = experiment: Growth inhibition of human NCI-H460 cells assessed as cell growth at 10^-6 M after 48 hrs by sulforhodamine B assay; settings: NCI-H460, 48 h, read-out: Activity
HOP-92 = experiment: Growth inhibition of human HOP92 cells assessed as cell growth at 10^-6 M after 48 hrs by sulforhodamine B assay; settings: HOP-92, 48 h, read-out: Activity
RPMI-8226 = experiment: Growth inhibition of human RPMI8226 cells assessed as cell growth at 10^-6 M after 48 hrs by sulforhodamine B assay; settings: RPMI-8226, 48 h, read-out: Activity
MCF7 [19] = experiment: Growth inhibition of human MCF7 cells assessed as cell growth at 10^-7 M after 48 hrs by sulforhodamine B assay; settings: MCF7, 48 h, read-out: Activity
A498 = experiment: Growth inhibition of human A498 cells assessed as cell growth at 10^-7 M after 48 hrs by sulforhodamine B assay; settings: A498, 48 h, read-out: Activity
OVCAR-8 = experiment: Growth inhibition of human OVCAR8 cells assessed as cell growth at 10^-7 M after 48 hrs by sulforhodamine B assay; settings: OVCAR-8, 48 h, read-out: Activity

Row | Compound | growth at 0.1 µM (U-251) [%] | growth at 0.1 µM (HCT-116 [1]) [%] | growth at 0.1 µM (COLO 205 [2]) [%] | growth at 0.1 µM (NCI-H226 [3]) [%] | growth at 0.1 µM (A549) [%] | growth at 100 µM (SK-OV-3) [%] | growth at 100 µM (OVCAR-5) [%] | growth at 100 µM (UACC-257 [4]) [%] | growth at 100 µM (Malme-3M) [%] | growth at 100 µM (SF-539) [%] | growth at 100 µM (SW-620 [5]) [%] | growth at 100 µM (HCT-15 [6]) [%] | growth at 0.01 µM (DU-145) [%] | growth at 0.01 µM (RXF 393) [%] | growth at 0.01 µM (CAKI-1 [7]) [%] | growth at 0.01 µM (UACC-257 [8]) [%] | growth at 0.01 µM (LOX IMVI) [%] | growth at 0.01 µM (HCT-15 [9]) [%] | growth at 0.01 µM (HCT-116 [10]) [%] | growth at 0.01 µM [11] [%] | further results
1 | COc1cc(-c2nn(-c3cccc(NC(=O)c4ccccc4)c3)cc2-c2ccncc2)ccc1Cl | 98 | 95 | 95 | 96 | 94 | 19 | 8 | 24 | 20 | -22 | 14 | 12 | 104 | 100 | 94 | 93 | 94 | 97 | 97 | 97 | growth at 0.01 µM (COLO 205 [12]): 100%; growth at 0.01 µM (K562): 102%; growth at 100 µM (NCI-H226 [13]): 24%; growth at 10 µM (BT-549): 26%; growth at 10 µM (MCF7 [14]): 10%; growth at 10 µM (CAKI-1 [15]): 14%; growth at 10 µM (NCI-H23): 21%; growth at 1 µM (MDA-MB-231): 53%; growth at 1 µM [16]: 52%; growth at 1 µM (MCF7 [17]): 17%; growth at 1 µM (SN12C): 64%; growth at 1 µM (SW-620 [18]): 35%; growth at 1 µM (NCI-H460): 17%; growth at 1 µM (HOP-92): 15%; growth at 1 µM (RPMI-8226): 46%; growth at 0.1 µM (MCF7 [19]): 87%; growth at 0.1 µM (A498): 89%; growth at 0.1 µM (OVCAR-8): 105%
2 | COc1cc(-c2nn(-c3cccc(NC(=O)c4ccc(N5CCOCC5)c(C(F)(F)F)c4)c3)cc2-c2ccncc2)ccc1Cl | 88 | 75 | 101 | 87 | 69 | -28 | 2 | -31 | -24 | -40 | 10 | 2 | 108 | 118 | 94 | 95 | 98 | 98 | 99 | 101 | growth at 0.01 µM (COLO 205 [12]): 106%; growth at 0.01 µM (K562): 99%; growth at 100 µM (NCI-H226 [13]): 16%; growth at 10 µM (BT-549): 25%; growth at 10 µM (MCF7 [14]): 8%; growth at 10 µM (CAKI-1 [15]): -2%; growth at 10 µM (NCI-H23): 4%; growth at 1 µM (MDA-MB-231): 18%; growth at 1 µM [16]: 6%; growth at 1 µM (MCF7 [17]): 18%; growth at 1 µM (SN12C): 51%; growth at 1 µM (SW-620 [18]): 36%; growth at 1 µM (NCI-H460): 16%; growth at 1 µM (HOP-92): -5%; growth at 1 µM (RPMI-8226): 16%; growth at 0.1 µM (MCF7 [19]): 76%; growth at 0.1 µM (A498): 77%; growth at 0.1 µM (OVCAR-8): 91%
